Columns and labels:
[1] = test system: cyclopentadecanone monooxygenase (CPDMO); experiment: Spectro-photometric activity assay (NADPH consumption at 340 nm), cell-free lysate containing CPDMO; format: biochemical, Pseudomonas species; conditions: 0.25 mM Globanone, 0.3 mM NADPH, pH 9.0, 30° C.
Source text: (§1) The genes for the two Baeyer-Villiger Monooxygenases (BVMOs) cyclopentadecanone monooxygenase from a Pseudomonas species (CPDMO, Iwaki, H. et al., Appl. Environ. Microbiol. (2006), 72 (4): 2707-2720) and cyclododecanone monooxygenase from a Rhodococcus species (CDMO, Kostichka, K. et al., J. Bacteriol. (2001), 183 (21): 6478-6486) were cloned using standard molecular biology tools. For recombinant enzyme production in Escherichia coli an L-arabinose inducible vector derived from a pBAD plasmid carrying a kanamycin/neomycin resistance gene was used in an E. coli K-12 strain, in which the Larabinose catabolism is disrupted. Glycerol stocks were used to inoculate 5 ml overnight cultures (LB, 100 μg/ml neomycin). […]
(§2) Protein concentrations of the lysates were determined to calculate specific activities (Protein determination by Bradford). The concentrations of total protein in the cell-free extracts (CFEs) were determined using a modified protein-dye binding method as described by Bradford in Anal. Biochem. 72: 248-254 (1976).
(§3) To determine if the two BVMOs were active on Globanone® a spectro-photometric activity assay was applied. The assay makes use of the strong absorbance decrease at 340 nm upon consumption of the NADPH cofactor. […] The decrease of absorbance was followed for 3 minutes before substrate addition to detect potential, unspecific NADPH oxidation. […]

[2] = test system: cyclododecanone monooxygenase (CDMO); experiment: Spectro-photometric activity assay (NADPH consumption at 340 nm), cell-free lysate containing CDMO; format: biochemical, Rhodococcus species; conditions: 0.25 mM Globanone, 0.3 mM NADPH, pH 9.0, 30° C.
Source text: as §1, §2, §3

O=C1CCCCCCC=CCCCCCCC1 [Globanone®]
volumetric activity ([1]; E. coli cell-free lysate containing CPDMO (9.9 mg/ml protein)): 0.04 U/ml | specific activity ([1]; per mg total cell-free lysate protein, CPDMO lysate): 0.004 U/mg | volumetric activity ([2]; E. coli cell-free lysate containing CDMO (18.6 mg/ml protein)): 3.71 U/ml | specific activity ([2]; per mg total cell-free lysate protein, CDMO lysate): 0.20 U/mg
